From the NIST ThermoML archive (doi:10.1016/j.jct.2015.12.025)
Numbers after ± are expanded uncertainties.

Assay: xn = mol fraction of the nth substance listed
Conditions: 102 kPa, Liquid, Vibrating tube method

With C[Si]1(CCC(F)(F)F)O[Si](C)(CCC(F)(F)F)O[Si](C)(CCC(F)(F)F)O1 (stereo not given) + COc1ccccc1 the mass density (308.15 K, x1 = 0.0502) was 1018.9 ± 1 kg/m3, the mass density (308.15 K, x1 = 0.0999) was 1050.1 ± 1 kg/m3 and the mass density (308.15 K, x1 = 0.15) was 1076.1 ± 1 kg/m3. It also gave a mass density (308.15 K, x1 = 0.1999) of 1097.79 ± 1 kg/m3, a mass density (308.15 K, x1 = 0.2501) of 1116.38 ± 1 kg/m3 and a mass density (308.15 K, x1 = 0.2998) of 1132.25 ± 1 kg/m3. The mass density (308.15 K, x1 = 0.3498) was 1146.05 ± 1 kg/m3, the mass density (308.15 K, x1 = 0.4001) was 1158.32 ± 1 kg/m3 and the mass density (308.15 K, x1 = 0.4497) was 1169.15 ± 1 kg/m3. For the same compound, the mass density (308.15 K, x1 = 0.4997) was 1178.65 ± 1 kg/m3, the mass density (308.15 K, x1 = 0.5453) was 1186.4 ± 1 kg/m3 and the mass density (308.15 K, x1 = 0.6001) was 1194.94 ± 1 kg/m3. The mass density (308.15 K, x1 = 0.6498) was 1201.9 ± 1 kg/m3, the mass density (308.15 K, x1 = 0.6995) was 1208.15 ± 1 kg/m3 and the mass density (308.15 K, x1 = 0.7502) was 1214.01 ± 1 kg/m3. The mass density (308.15 K, x1 = 0.8) was 1219.27 ± 1 kg/m3, the mass density (308.15 K, x1 = 0.8491) was 1223.97 ± 1 kg/m3 and the mass density (308.15 K, x1 = 0.8997) was 1228.56 ± 1 kg/m3. It also gave a mass density (308.15 K, x1 = 0.9497) of 1232.67 ± 1 kg/m3, a mass density (308.15 K, x1 = 1) of 1236.63 ± 1 kg/m3 and a mass density (313.15 K, x1 = 0.0502) of 1013.91 ± 1 kg/m3. It also gave a mass density (313.15 K, x1 = 0.0999) of 1044.97 ± 1 kg/m3, a mass density (313.15 K, x1 = 0.15) of 1070.73 ± 1 kg/m3 and a mass density (313.15 K, x1 = 0.1999) of 1092.31 ± 1 kg/m3. It also gave a mass density (313.15 K, x1 = 0.2501) of 1110.76 ± 1 kg/m3, a mass density (313.15 K, x1 = 0.2998) of 1126.52 ± 1 kg/m3 and a mass density (313.15 K, x1 = 0.3498) of 1140.29 ± 1 kg/m3. It also gave a mass density (313.15 K, x1 = 0.4001) of 1152.45 ± 1 kg/m3, a mass density (313.15 K, x1 = 0.4497) of 1163.11 ± 1 kg/m3 and a mass density (313.15 K, x1 = 0.4997) of 1172.56 ± 1 kg/m3. It also gave a mass density (313.15 K, x1 = 0.5453) of 1180.31 ± 1 kg/m3, a mass density (313.15 K, x1 = 0.6001) of 1188.71 ± 1 kg/m3 and a mass density (313.15 K, x1 = 0.6498) of 1195.72 ± 1 kg/m3. For the same compound, the mass density (313.15 K, x1 = 0.6995) was 1201.84 ± 1 kg/m3, the mass density (313.15 K, x1 = 0.7502) was 1207.72 ± 1 kg/m3 and the mass density (313.15 K, x1 = 0.8) was 1212.9 ± 1 kg/m3. It also gave a mass density (313.15 K, x1 = 0.8491) of 1217.59 ± 1 kg/m3, a mass density (313.15 K, x1 = 0.8997) of 1222.13 ± 1 kg/m3 and a mass density (313.15 K, x1 = 0.9497) of 1226.23 ± 1 kg/m3. It also gave a mass density (313.15 K, x1 = 1) of 1230.05 ± 1 kg/m3, a mass density (318.15 K, x1 = 0.0502) of 1008.94 ± 1 kg/m3 and a mass density (318.15 K, x1 = 0.0999) of 1039.74 ± 1 kg/m3. It also gave a mass density (318.15 K, x1 = 0.15) of 1065.35 ± 1 kg/m3, a mass density (318.15 K, x1 = 0.1999) of 1086.77 ± 1 kg/m3 and a mass density (318.15 K, x1 = 0.2501) of 1105.11 ± 1 kg/m3. For the same compound, the mass density (318.15 K, x1 = 0.2998) was 1120.84 ± 1 kg/m3, the mass density (318.15 K, x1 = 0.3498) was 1134.47 ± 1 kg/m3 and the mass density (318.15 K, x1 = 0.4001) was 1146.5 ± 1 kg/m3. It also gave a mass density (318.15 K, x1 = 0.4497) of 1156.93 ± 1 kg/m3, a mass density (318.15 K, x1 = 0.4997) of 1166.57 ± 1 kg/m3 and a mass density (318.15 K, x1 = 0.5453) of 1174.14 ± 1 kg/m3. It also gave a mass density (318.15 K, x1 = 0.6001) of 1182.53 ± 1 kg/m3, a mass density (318.15 K, x1 = 0.6498) of 1189.43 ± 1 kg/m3 and a mass density (318.15 K, x1 = 0.6995) of 1195.66 ± 1 kg/m3. The mass density (318.15 K, x1 = 0.7502) was 1201.45 ± 1 kg/m3, the mass density (318.15 K, x1 = 0.8) was 1206.52 ± 1 kg/m3 and the mass density (318.15 K, x1 = 0.8491) was 1211.19 ± 1 kg/m3. The mass density (318.15 K, x1 = 0.8997) was 1215.62 ± 1 kg/m3, the mass density (318.15 K, x1 = 0.9497) was 1219.73 ± 1 kg/m3 and the mass density (318.15 K, x1 = 1) was 1223.55 ± 1 kg/m3. It also gave a mass density (323.15 K, x1 = 0.0502) of 1003.9 ± 1 kg/m3, a mass density (323.15 K, x1 = 0.0999) of 1034.53 ± 1 kg/m3 and a mass density (323.15 K, x1 = 0.15) of 1059.95 ± 1 kg/m3. For the same compound, the mass density (323.15 K, x1 = 0.1999) was 1081.24 ± 1 kg/m3, the mass density (323.15 K, x1 = 0.2501) was 1099.47 ± 1 kg/m3 and the mass density (323.15 K, x1 = 0.2998) was 1115.01 ± 1 kg/m3. For the same compound, the mass density (323.15 K, x1 = 0.3498) was 1128.62 ± 1 kg/m3, the mass density (323.15 K, x1 = 0.4001) was 1140.45 ± 1 kg/m3 and the mass density (323.15 K, x1 = 0.4497) was 1151 ± 1 kg/m3. It also gave a mass density (323.15 K, x1 = 0.4997) of 1160.21 ± 1 kg/m3, a mass density (323.15 K, x1 = 0.5453) of 1168.04 ± 1 kg/m3 and a mass density (323.15 K, x1 = 0.6001) of 1176.37 ± 1 kg/m3. The mass density (323.15 K, x1 = 0.6498) was 1183.1 ± 1 kg/m3, the mass density (323.15 K, x1 = 0.6995) was 1189.14 ± 1 kg/m3 and the mass density (323.15 K, x1 = 0.7502) was 1194.99 ± 1 kg/m3. The mass density (323.15 K, x1 = 0.8) was 1200.09 ± 1 kg/m3, the mass density (323.15 K, x1 = 0.8491) was 1204.79 ± 1 kg/m3 and the mass density (323.15 K, x1 = 0.8997) was 1209.23 ± 1 kg/m3. The mass density (323.15 K, x1 = 0.9497) was 1213.21 ± 1 kg/m3 and the mass density (323.15 K, x1 = 1) was 1216.99 ± 1 kg/m3.
